Test results taken from article PMC8805605, “Discovery of Dimeric Arylsulfonamides as Potent ADAM8 Inhibitors” (ACS Medicinal Chemistry Letters, 2021).

molecular target: T1, ADAM10 (Homo sapiens, UniProt O14672); test: ADAM10 fluorometric inhibition assay; type: biochemical; details: mean of three independent experiments in duplicate, read-out: In vitro inhibitory activity IC50 on ADAM10
T1 construct: purchased R&D Systems
T1 sequence (O14672 214-748): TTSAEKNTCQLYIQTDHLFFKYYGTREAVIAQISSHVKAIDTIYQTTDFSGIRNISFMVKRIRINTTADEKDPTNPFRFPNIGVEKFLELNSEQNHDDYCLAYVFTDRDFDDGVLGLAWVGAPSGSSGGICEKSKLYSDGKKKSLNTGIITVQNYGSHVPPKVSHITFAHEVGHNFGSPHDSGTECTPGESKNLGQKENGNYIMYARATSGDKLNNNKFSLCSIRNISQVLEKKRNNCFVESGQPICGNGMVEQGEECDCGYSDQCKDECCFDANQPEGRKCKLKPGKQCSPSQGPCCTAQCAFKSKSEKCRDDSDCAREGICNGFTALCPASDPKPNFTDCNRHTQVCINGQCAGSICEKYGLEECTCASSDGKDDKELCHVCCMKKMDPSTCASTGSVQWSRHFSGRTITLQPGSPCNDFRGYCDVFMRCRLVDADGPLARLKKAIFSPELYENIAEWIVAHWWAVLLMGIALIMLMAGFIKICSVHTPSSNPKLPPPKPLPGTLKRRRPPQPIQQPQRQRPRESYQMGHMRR
Description: The newly synthesized bivalent derivatives 1–3 were then tested in vitro on human recombinant ADAM8 in comparison with JG26 by a fluorometric assay. The inhibitory activity against a panel of MMPs and ADAM10/17 was determined as well to assess their selectivity profile. […]
VI. Biological Activity on Isolated Enzymes
MMP and ADAM10 inhibition assays.
Recombinant human MMP-14 catalytic domain was a kind gift of Prof. Gillian Murphy (Department of […]
Oncology, University of Cambridge, UK). Pro-MMP-1, pro-MMP-2, and pro-MMP-9, were purchased […]
from Calbiochem (Merck-Millipore). Pro-MMP-12 and ADAM10 were purchased from R&D Systems.
Proenzymes were activated immediately prior to use with p-aminophenylmercuric acetate (APMA 2 […]
mM for 1 h at 37°C for MMP-2 and MMP-1, 1 mM for 1 h at 37°C for MMP-9). Pro-MMP-12 was […]
auto activated by incubating in the fluorometric assay buffer (FAB: Tris 50 mM, pH = 7.5, NaCl 150 […]
mM, CaCl2 10 mM, Brij 35 0.05% and DMSO 1%) for 30 h at 37°C. For assay measurements, each […]
inhibitor stock solution (DMSO, 10 mM) was further diluted in FAB at seven different concentrations.
Activated enzyme (final concentration 0.56 nM for MMP-2, 1.3 nM for MMP-9, 1.0 nM for MMP- […]
14cd, 2.0 nM for MMP-1, 2.3 nM for MMP-12 and 20 nM for ADAM10) and inhibitor solutions were […]
incubated in the assay buffer for 3 h at 25 °C. ADAM10 was incubated for 1 h at 37°C in a different […]
buffer at pH 9 (Tris 25 mM, ZnCl2 25 µM, Brij-35 0.005 %). After the addition of 200 µM solution of […]
the fluorogenic substrate Mca-Lys-Pro-Leu-Gly-Leu-Dap(Dnp)-Ala-Arg-NH2 (Bachem) for all the […]
enzymes in DMSO (final concentration 2 µM for all enzymes, 10 µM for ADAM10), the hydrolysis […]
was monitored every 10 sec. for 15 min. recording the increase in fluorescence (λ ex = 325 nm, λ em = […]
400 nm) using a Molecular Devices SpectraMax Gemini XPS plate reader. The assays were performed […]
in triplicate in a total volume of 200 μL per well in 96-well microtitre plates (Corning, black, NBS).
Control wells lack inhibitor. The MMP inhibition activity was expressed in relative fluorescent units […]
(RFU). Percent of inhibition was calculated from control reactions without the inhibitor. IC50 was determined using the formula: v i/v o = 1/(1 + [I]/ IC50), where v i is the initial velocity of substrate cleavage in the presence of the inhibitor at concentration [I] and v o is the initial velocity in the absence of the inhibitor. Results were analyzed using SoftMax Pro software (version 5.4.3, Molecular Devices, Sunnyvale, CA) and Prism Software version 5.0 (GraphPad Software, Inc., La Jolla, CA, USA).
ADAM8 and ADAM17 inhibition assays […]

SMILES | IC50
O=C(CCCNC(=O)c1cccc(C(=O)NCCCC(=O)NCCC[C@@H](NS(=O)(=O)c2ccc(OCc3cc(Br)cc(Br)c3)cc2)C(=O)NO)c1)NCCC[C@@H](NS(=O)(=O)c1ccc(OCc2cc(Br)cc(Br)c2)cc1)C(=O)NO [Compound 1] | 30.6 µM
O=C(NCCC[C@@H](NS(=O)(=O)c1ccc(OCc2cc(Br)cc(Br)c2)cc1)C(=O)NO)c1cccc(C(=O)NCCC[C@@H](NS(=O)(=O)c2ccc(OCc3cc(Br)cc(Br)c3)cc2)C(=O)NO)c1 [Compound 2] | 10 µM
O=C(NCCC[C@@H](NS(=O)(=O)c1ccc(OCc2cc(Br)cc(Br)c2)cc1)C(=O)NO)NCCC[C@@H](NS(=O)(=O)c1ccc(OCc2cc(Br)cc(Br)c2)cc1)C(=O)NO [Compound 3] | 27.4 µM
NC(=O)NCCC[C@@H](NS(=O)(=O)c1ccc(OCc2cc(Br)cc(Br)c2)cc1)C(=O)NO [JG26, reference compound] | 0.15 µM
